Data set [1] has as its system HUVEC. The data set is described as follows: HUVEC cell proliferation assay. It counts as cell-based, human. As to conditions: Homo sapiens, HUVEC, 48 h, 10 μM in 0.1% DMSO, 48 hours; read-out: HUVEC proliferation. A digest of the protocol: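 HUVEC and LEC in EBM with 20% FBS, hydrocortisone and dibutyryl-cAMP were treated with compound at 10 μM in 0.1% DMSO for 48 hours. Viable cells read by fluorescence, in five replicates.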

Data set [2] deals with Xenopus embryos. A digest of the protocol:
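Stage 31 (37 hpf) Xenopus embryos, five per well, exposed to 20 µM compound in 1% DMSO at 23 °C for 4 days. Edema, lethality and other external phenotypes were scored daily by two investigators at stages 39, 41, 45 and 47.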

Each structure is given as a SMILES string.

As to `Oc1cc(-c2ccccc2)nc2nc(Cl)ccc12` [7-Chloro-4-hydroxy-2-phenyl-1,8-naphthyridine], the activity at 10 µM in data set [1] fell in the range of 42 to 48%. Besides, the “Lethality (NF)” value in data set [2] (compounds causing edema, 20 μM, 1% DMSO, treatment from stage 31, scored to stage 47) is on record as 39 NF. Further, the “Type of edema Pericordial” value in data set [2] (embryonic stage) was 39 embryonic stages according to Nieuwkoop and Faber (NF). In addition, the Lethality in data set [2] (embryonic stage, — = no stage of lethality given) is 39 embryonic stages according to Nieuwkoop and Faber (NF).

The values above are taken from US9945845B2, “Methods of screening using amphibians” (priority 2009, dated 2018).
